Source: US20200399262A1, “COMPOUNDS FOR INHIBITING PROTEIN DEGRADATION AND METHODS OF USE THEREOF IN THE TREATMENT OF CANCER” (PI Therapeutics Ltd, priority 2018, published 2020)
pEC50: −log10 of the molar value.

Tests used:
Type in all cases: cell-based
A-427 = experiment: Cell viability panel, ATPlite 1Step; details: Homo sapiens, Lung adenocarcinoma, 72 h exposure, read-out: Compound EC50
Summary of the method: (§1)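 ATPlite: optimal density 200-6400 cells/well, ATCC medium, 8 conc 0.04-32 μM, 72 h. CyQUANT: 24 h pre-seed, 5,000-40,000 cells/well, RPMI 1640 + 10% FBS + 2 mM Gln, 0.04-1 μM, 48 h 37° C., EC50 from [(Ti−Tz)/(C−Tz)]×100.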

A-498 = experiment: Cell viability panel, ATPlite 1Step; details: Homo sapiens, A498, Renal cell carcinoma, 72 h exposure, read-out: Compound EC50
Summary of the method: as §1

AU-565 = experiment: Cell viability panel, ATPlite 1Step; details: Homo sapiens, AU565, Breast adenocarcinoma, 72 h exposure, read-out: Compound EC50
Summary of the method: as §1

BxPC-3 = experiment: Cell viability panel, ATPlite 1Step; details: Homo sapiens, Pancreatic ductal adenocarcinoma, 72 h exposure, read-out: Compound EC50
Summary of the method: as §1

COLO 205 = experiment: Cell viability panel, ATPlite 1Step; details: Homo sapiens, Colon adenocarcinoma, 72 h exposure, read-out: Compound EC50
Summary of the method: as §1

COLO 829 = experiment: Cell viability panel, ATPlite 1Step; details: Homo sapiens, Cutaneous melanoma, 72 h exposure, read-out: Compound EC50
Summary of the method: as §1

DU4475 = experiment: Cell viability panel, ATPlite 1Step; details: Homo sapiens, DU-4475, Breast carcinoma, 72 h exposure, read-out: Compound EC50
Summary of the method: as §1

HCT 116 = experiment: Cell viability panel, ATPlite 1Step; details: Homo sapiens, Colon carcinoma, 72 h exposure, read-out: Compound EC50
Summary of the method: as §1

HT-1080 = experiment: Cell viability panel, ATPlite 1Step; details: Homo sapiens, Fibrosarcoma, 72 h exposure, read-out: Compound EC50
Summary of the method: as §1

Hs 578T = experiment: Cell viability panel, ATPlite 1Step; details: Homo sapiens, Invasive ductal carcinoma, 72 h exposure, read-out: Compound EC50
Summary of the method: as §1

Hs 766T = experiment: Cell viability panel, ATPlite 1Step; details: Hs766T, Pancreatic adenocarcinoma, 72 h exposure, read-out: Compound EC50
Summary of the method: as §1

JAR = experiment: Cell viability panel, ATPlite 1Step; details: Gestational choriocarcinoma, 72 h exposure, read-out: Compound EC50
Summary of the method: as §1

Jurkat E6.1 = experiment: Cell viability panel, ATPlite 1Step; details: Homo sapiens, T acute lymphoblastic leukemia, 72 h exposure, read-out: Compound EC50
Summary of the method: as §1

K-562 = experiment: Cell viability panel, ATPlite 1Step; details: Homo sapiens, K562, Chronic myelogenous leukemia, 72 h exposure, read-out: Compound EC50
Summary of the method: as §1

KG-1 = experiment: Cell viability panel, ATPlite 1Step; details: Homo sapiens, Acute myeloid leukemia, 72 h exposure, read-out: Compound EC50
Summary of the method: as §1

LS411N = experiment: Cell viability panel, ATPlite 1Step; details: Homo sapiens, LS-411N, Cecum adenocarcinoma, 72 h exposure, read-out: Compound EC50
Summary of the method: as §1

LoVo = experiment: Cell viability panel, ATPlite 1Step; details: Homo sapiens, Colon adenocarcinoma, 72 h exposure, read-out: Compound EC50
Summary of the method: as §1

MG-63 = experiment: Cell viability panel, ATPlite 1Step; details: Homo sapiens, Osteosarcoma, 72 h exposure, read-out: Compound EC50
Summary of the method: as §1

PC-3 = experiment: Cell viability panel, ATPlite 1Step; details: Homo sapiens, Prostate carcinoma, 72 h exposure, read-out: Compound EC50
Summary of the method: as §1

PFSK-1 = experiment: Cell viability panel, ATPlite 1Step; details: Homo sapiens, Primitive neuroectodermal tumor, 72 h exposure, read-out: Compound EC50
Summary of the method: as §1

RKO = experiment: Cell viability panel, ATPlite 1Step; details: Homo sapiens, Colon carcinoma, 72 h exposure, read-out: Compound EC50
Summary of the method: as §1

RL95-2 = experiment: Cell viability panel, ATPlite 1Step; details: Homo sapiens, Endometrial adenosquamous carcinoma, 72 h exposure, read-out: Compound EC50
Summary of the method: as §1

RS4-11 = experiment: Cell viability panel, ATPlite 1Step; details: Homo sapiens, B acute lymphoblastic leukemia, 72 h exposure, read-out: Compound EC50
Summary of the method: as §1

SW837 = experiment: Cell viability panel, ATPlite 1Step; details: Homo sapiens, Rectal adenocarcinoma, 72 h exposure, read-out: Compound EC50
Summary of the method: as §1

T24 = experiment: Cell viability panel, ATPlite 1Step; details: Homo sapiens, T-24, Bladder carcinoma, 72 h exposure, read-out: Compound EC50
Summary of the method: as §1

U-118 MG = experiment: Cell viability panel, ATPlite 1Step; details: Homo sapiens, Astrocytoma, 72 h exposure, read-out: Compound EC50
Summary of the method: as §1

EKVX = experiment: NCI60 screen cytotoxicity; details: Homo sapiens, Lung cancer, read-out: Compound B1 EC50
SNB-75 = experiment: NCI60 screen cytotoxicity; details: Homo sapiens, CNS, read-out: Compound B1 EC50

**Q.** With CN(C)CCCS(=O)(=O)N1C/C(=C\c2ccc(C#N)cc2)C(=O)/C(=C/c2ccc(C#N)cc2)C1 [Compound AA] as the compound, how does the pEC50 (A-427) read?
**A.** > 6.52

**Q.** What about the pEC50 (A-498) of the same compound?
**A.** 6.00 to 6.52

**Q.** What about the pEC50 (AU-565) of the same compound?
**A.** > 6.52

**Q.** What about the pEC50 (BxPC-3) of the same compound?
**A.** > 6.52

**Q.** And the pEC50 (COLO 205)?
**A.** > 6.52

**Q.** What about the pEC50 (COLO 829) of the same compound?
**A.** > 6.52

**Q.** What about the pEC50 (DU4475) of the same compound?
**A.** 6.00 to 6.52

**Q.** And the pEC50 (HCT 116)?
**A.** > 6.52

**Q.** What about the pEC50 (HT-1080) of the same compound?
**A.** > 6.52

**Q.** What about the pEC50 (Hs 578T) of the same compound?
**A.** > 6.52

**Q.** And the pEC50 (Hs 766T)?
**A.** 6.00 to 6.52

**Q.** What about the pEC50 (JAR) of the same compound?
**A.** > 6.52

**Q.** And the pEC50 (Jurkat E6.1)?
**A.** > 6.52

**Q.** And the pEC50 (K-562)?
**A.** > 6.52

**Q.** And the pEC50 (KG-1)?
**A.** > 6.52

**Q.** What about the pEC50 (LS411N) of the same compound?
**A.** 6.00 to 6.52

**Q.** What about the pEC50 (LoVo) of the same compound?
**A.** > 6.52

**Q.** And the pEC50 (MG-63)?
**A.** > 6.52

**Q.** What about the pEC50 (PC-3) of the same compound?
**A.** 6.00 to 6.52

**Q.** What about the pEC50 (PFSK-1) of the same compound?
**A.** > 6.52

**Q.** What about the pEC50 (RKO) of the same compound?
**A.** > 6.52

**Q.** What about the pEC50 (RL95-2) of the same compound?
**A.** > 6.52

**Q.** What about the pEC50 (RS4-11) of the same compound?
**A.** > 6.52

**Q.** What about the pEC50 (SW837) of the same compound?
**A.** 6.00 to 6.52

**Q.** What about the pEC50 (T24) of the same compound?
**A.** > 6.52

**Q.** And the pEC50 (U-118 MG)?
**A.** > 6.52

**Q.** How did the pEC50 (EKVX) turn out when CN(C)CC(=O)NCC(=O)N1C/C(=C\c2ccc(C#N)cc2)C(=O)/C(=C/c2ccc(C#N)cc2)C1 [Compound B1] was run?
**A.** 6.00 to 6.52

**Q.** And the pEC50 (SNB-75)?
**A.** 6.00 to 6.52
